Legend:
[1] = Standardized method for determining photostability (sun test); format: physicochemical; conditions: 5% strength by weight alcoholic solution on glass plate, 40° C.; for Photostability 30 min: 30 min irradiation; for Photostability 2 h: 2 h irradiation
Experimental: Standardized Method for Determining Photostability (Sun Test)
A 5% strength by weight alcoholic solution of the light protection agent to be tested is applied, using an Eppendorf pipette (20 μl), to the milled area of a small glass plate. Owing to the presence of the alcohol, the solution distributes uniformly on the roughened surface of the glass. The amount applied corresponds to the amount of light protection agent required to achieve an average sun protection factor in suncreams. In the test, four small glass plates are irradiated in each case. […] The small glass plates are cooled slightly during irradiation using a water cooling system located at the base of the sun test apparatus. The temperature inside the sun test apparatus is 40° C. during irradiation. After the samples have been irradiated, they are washed with ethanol in a dark 50 ml graduated flask and measured using a photometer. The blank samples are likewise applied to small glass plates and evaporated at room temperature for 30 minutes. Like the other samples, they are washed off with ethanol and diluted to 100 ml and measured.

[2] = UV absorption (absorption maximum and specific absorbance E 1/1); format: physicochemical; conditions: for λmax: UV absorption maximum; for E^1/1: specific absorbance at λmax
[3] = used alone or in combination with UV-B filters; cited from earlier work

Row | SMILES | Photostability 30 min [1] | Photostability 2 h [1] | λmax [2] [nm] | E^1/1 [2] | photochemical stability [3]
1 | CC(C)(C)C(=O)/C(C#N)=C/c1ccc2c(c1)C(C)(C)CCC2(C)C [Example 5] | 86% | 83% | 330 | 601 | –
2 | CCOC(=O)C(=Cc1cc2c(cc1OC)C(C)(C)CCC2(C)C)C(=O)OCC [Example 8] | 100/100% | 100/100% | – | – | –
3 | CCOC(=O)C(=Cc1cc2c(cc1C)C(C)(C)CCC2(C)C)C(=O)OCC [Example 7] | 99% | 95% | 294 | 594 | –
4 | CC(=O)C(=Cc1ccc2c(c1)C(C)(C)CCO2)C(C)=O [Example 3] | 97% | 84% | 330 | 801 | –
5 | CC(=C(C#N)C#N)c1ccc2c(c1)C(C)(C)CCC2 [Example 1] | 96% | 90% | 346 | 694 | –
6 | CCOC(=O)C(=Cc1ccc2c(c1)C(C)(C)CCO2)C(=O)OCC [Example 2] | 100% | 95% | 320 | 616 | –
7 | COc1ccc(C(=O)CC(=O)c2ccc(C(C)(C)C)cc2)cc1 [PARSOL 1789, 4-(1,1-dimethylethyl)-4′-methoxydibenzoylmethane] | – | – | – | – | does not have sufficient photochemical stability
8 | Cc1cc2c(cc1C=C(C#N)C#N)C(C)(C)CCC2(C)C [Example 4] | 95% | 83% | 336 | 700 | –
9 | CCOC(=O)C(=Cc1ccc2c(c1)C(C)(C)CCC2(C)C)C(=O)OCC [Example 6] | 100% | 99% | 294 | 411 | –

Reference: US6524560B1, “Use of substituted vinyltetrahydronaphthalenes and vinyl-benzotetrahydropyrans as light protection agents” (BASF Aktiengesellschaft, priority 1999, dated 2003)
